Results: patent publication US20250122219A1 (priority 2023, published 2025)
Converted amounts (≈) assume the structure as drawn. Where two headings read alike, the source gives them in different places.

Tests used:
HIV-1 (IIIB) = test: Antiviral assay in MT-4 cells; type: cell-based; conditions: HIV-1 IIIB in MT-4 cells, 5 days incubation, Cell Titer Glo, read-out: MT4 EC50
How it was run: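 HIV-1 IIIB-infected MT-4 cells (fresh 1:250 virus stock dilution; mock-infected controls) incubated 5 days at 37 °C with serially diluted compounds in RPMI/10% FBS; 5 μM AZT as positive control. Cell viability read by CellTiter-Glo luminescence as measure of protection from viral replication.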

MT-4 cells = test: Cytotoxicity assay in MT-4 cells; type: cell-based; conditions: uninfected MT-4 cells, 5 days incubation, Cell Titer Glo; read-out: MT4 CC50
How it was run: (§1)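 Uninfected MT-4 cells exposed to serially diluted compounds in RPMI with 10% FBS for 5 days at 37 °C. Viability by Cell Titer Glo chemiluminescence. Puromycin […] as baseline cytotoxicity control.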

[1] = Cytotoxicity assay in MT-4 cells; type: cell-based; conditions: human; uninfected MT-4 cells, 5 days incubation, Cell Titer Glo; read-out: MT4 CC50
How it was run: as §1

physchem = type: physicochemical; conditions: 23 °C, thermodynamic from solid, ambient temperature, 5 mg/mL dose concentration; for solubility thermodynamic at 24 h: FaSSIF; for solubility thermodynamic: aqueous buffer, PBS
Protocol: Approximately 7 mg of each test compound as a dry powder was placed in a vial. Aliquots were weighed out for each assay media at 2 hour and 24 hour time points, to be analyzed. The appropriate buffer (FaSSIF or PBS) was added to each vial such that the final dose concentration of 5 mg/mL was achieved. […] The plate was sealed with a pierceable heat seal and analyzed by HPLC-UV.
A system QC (0.01 mg/mL Caffeine in DMSO) was injected every 12-15 injections. […] Results are reported using data obtained at 280 nm. The resulting peak areas were plotted against the known concentrations from the calibration and the filtrates are quantified with respect to the linear regression using Agilent OpenLab Intelligent Reporting Software. The results are reported electronically in mg/mL.

[2] = Human immunodeficiency virus 1, MT4, 120 h

EC50 (HIV-1 (IIIB); [2]) [µM]	solubility thermodynamic at 24 h (physchem) [µg/mL]	solubility thermodynamic (physchem) [µg/mL]	Structure (SMILES)	EC50 (HIV-1 (IIIB)) [µM]	CC50 (MT-4 cells) [µM]	CC50 at 5 days [1] [µM]
			COC(=O)OCOc1c2n(cc(C(=O)NCc3ccc(F)cc3F)c1=O)[C@@H]1CN(C2=O)[C@@H](C)CC[C@]12CC(OC)=NO2 [Example 11, (((3′S,5S,7′R)-10′-((2,4-difluorobenzyl)carbamoyl)-3-methoxy-3′-methyl-1′,11′-dioxo-1′,4′,5′,11′-tetrahydro-3′H,4H,7′H-spiro[isoxazole-5,6′-[2,7]methanopyrido[1,2-a][1,4]diazonin]-12-yl)oxy)methyl methyl carbonate]	0.00834	36.8	
0.00381	30 (≈ 52.2 µM)		COC(=O)OCOc1c2n(cc(C(=O)NCc3ccc(F)cc3F)c1=O)[C@@H]1CN(C2=O)[C@@H](C)CC[C@]12CC(C)=NO2 [Example 12, (((3′S,5S,7′R)-10′-((2,4-difluorobenzyl)carbamoyl)-3,3′-dimethyl-1′,11′-dioxo-1′,4′,5′,11′-tetrahydro-3′H,4H,7′H-spiro[isoxazole-5,6′-[2,7]methanopyrido[1,2-a][1,4]diazonin]-12′-yl)oxy)methyl methyl carbonate]			25.9
0.0064	35 (≈ 56.6 µM)	15 (≈ 24.2 µM)	COCCOC(=O)OCOc1c2n(cc(C(=O)NCc3ccc(F)cc3F)c1=O)[C@@H]1CN(C2=O)[C@@H](C)CC[C@]12CC(C)=NO2 [Example 10, (((3′S,5S,7′R)-10′-((2,4-difluorobenzyl)carbamoyl)-3,3′-dimethyl-1′,11′-dioxo-1′,4′,5′,11′-tetrahydro-3′H,4H,7′H-spiro[isoxazole-5,6′-[2,7]methanopyrido[1,2-a][1,4]diazonin]-12′-yl)oxy)methyl (2-methoxyethyl) carbonate]			31.7
0.0013	270	372	CC(=O)Oc1c2n(cc(C(=O)NCc3ccc(F)cc3F)c1=O)[C@@H]1CN(C2=O)[C@@H](C)CC[C@]12CC(C)=NO2 [Example 16, (3′S,5S,7′R)-10′-((2,4-difluorobenzyl)carbamoyl)-3,3′-dimethyl-1′,11′-dioxo-1′,4′,5′,11′-tetrahydro-3′H,4H,7′H-spiro[isoxazole-5,6′-[2,7]methanopyrido[1,2-a][1,4]diazonin]-12′-yl acetate]			11.2
